Patent US5968791A, “Plant lysophosphatidic acid acyltransferases” (Calgene, Inc., priority 1995, dated 1999)
Blank lines part the entries; values can stand above or below the molecule they belong to.

Tests used:
coconut LPAAT [1] = assay: LPAAT activity assay, coconut P2 membrane preparation; assay type: biochemical, Cocos nucifera; details: coconut P2 preparation, same assay
Protocol: To assay for LPAAT activity, the sample is incubated with lysophosphatidic acid (LPA) and acyl-coenzyme A (acyl-CoA) substrates in buffered solution. The acyl substituents of the two substrates are chosen to correspond with the specificity of the enzyme being measured. […] LPAAT activity is measured as the amount of radioactive product formed in a given assay time. The PA product is radioactive as a result of the transferred radiolabeled acyl group at the central carbon atom of the molecule, and the quantity of PA formed may be determined by measuring radioactivity of the PA fraction. […]
To stop the assay, 0.25 ml of 1M KCl in 0.2M H3 PO4 is added to the vial. […] The total radioactivity extracted into the organic phase is determined by liquid scintillation counting; a 100 μl sample of the organic phase is transferred to a 20 ml scintillation vial and allowed to dry, and scintillation fluid (3-5 ml) is added to the vial. The radioactivity of the sample, after subtraction of the "minus-enzyme" or "minus-LPA" radioactivities, is taken as an approximate indication of the amount of PA formed in the LPAAT-catalyzed reaction and therefore of LPAAT activity. […]

coconut LPAAT [2] = target: T1, coconut LPAAT (Cocos nucifera, UniProt Q42670); assay: as above; assay type: biochemical; parameters: white endosperm tissue lining the inside of the endocarp can be dissected and collected; from tissue; host or cells: immature coconut endosperm, P2 membrane fraction
T1 sequence (Q42670 1-308): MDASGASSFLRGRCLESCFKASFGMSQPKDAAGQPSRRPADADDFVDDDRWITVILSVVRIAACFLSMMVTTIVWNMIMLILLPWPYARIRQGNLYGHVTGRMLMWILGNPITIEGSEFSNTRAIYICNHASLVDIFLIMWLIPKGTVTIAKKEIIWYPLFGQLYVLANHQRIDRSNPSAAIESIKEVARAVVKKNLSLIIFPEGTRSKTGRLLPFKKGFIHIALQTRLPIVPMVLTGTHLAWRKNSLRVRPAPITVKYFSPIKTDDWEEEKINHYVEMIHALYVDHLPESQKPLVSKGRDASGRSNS
Protocol: (§1) To assay for LPAAT activity, the sample is incubated with lysophosphatidic acid (LPA) and acyl-coenzyme A (acyl-CoA) substrates in buffered solution. The acyl substituents of the two substrates are chosen to correspond with the specificity of the enzyme being measured. For example, to measure activity of an LPAAT having preference for medium-chain substrates, lauroyl-LPA (lauroyl-lysophosphatidic acid) and lauroyl-CoA may be used, to measure activity of an LPAAT preferring longer-chain acyl groups, oleoyl-LPA and oleoyl-CoA may be used, to measure activity of an LPAAT preferring very-long chain substrate, erucyl-LPA and erucyl-CoA may be used, and so on, depending upon the type of LPAAT to be tested. The acyl group of one substrate is radioactively labeled in order to detect the product formed. In the examples which follow the acyl substituent of the acyl-CoA substrate is radiolabeled with ^14 C in the carboxyl group. LPAAT activity results in transfer of this acyl group from the acyl-CoA "donor" substrate to the LPA "acceptor" substrate, converting the latter into the product, phosphatidic acid (PA). LPAAT activity is measured as the amount of radioactive product formed in a given assay time. The PA product is radioactive as a result of the transferred radiolabeled acyl group at the central carbon atom of the molecule, and the quantity of PA formed may be determined by measuring radioactivity of the PA fraction. For this measurement, the PA is first separated from the acyl-CoA substrate by solvent partitioning, or by thin-layer chromatography (TLC).
(§2) 20 μl of the sample to be assayed for LPAAT activity is mixed with 217.5 μl of an assay ingredient mixture in a 4-ml, screw-cap vial. […] The incubation takes place in a water bath at 30° C., for 20-30 minutes.
(§3) To stop the assay, 0.25 ml of 1M KCl in 0.2M H3 PO4 is added to the vial. At this point, 40 μl BSA (bovine serum albumin, fraction V) at 1 mg/ml are added, followed by 0.75 ml of a solution of 67 μg/ml unlabeled PA (acting as a "carrier" to facilitate partitioning) in chloroform/methanol (2:1, v/v). The chain lengths of the PA acyl groups are chosen to correspond to those used in the assay substrates. Upon thorough mixing of these components the radiolabeled PA product of the LPAAT reaction partitions into the organic phase and away from the unreacted acyl-CoA and LPA. The vial is centrifuged briefly at low speed to facilitate the separation of organic (lower) and aqueous (upper) phases. The aqueous phase is then removed and discarded. The total radioactivity extracted into the organic phase is determined by liquid scintillation counting; a 100 μl sample of the organic phase is transferred to a 20 ml scintillation vial and allowed to dry, and scintillation fluid (3-5 ml) is added to the vial. The radioactivity of the sample, after subtraction of the "minus-enzyme" or "minus-LPA" radioactivities, is taken as an approximate indication of the amount of PA formed in the LPAAT-catalyzed reaction and therefore of LPAAT activity.
A more accurate estimation of the LPAAT activity may be obtained by separating the PA product from these contaminants by TLC. The remaining organic phase is applied to a silica TLC plate. Ascending chromatography is carried out for 50 minutes, using the solvent mixture chloroform/pyridine/88% formic acid (50:30:7, v/v). After the plate has dried, the distribution of radioactivity is visualized and quantitated using an AMBIS radioanalytic imaging system (AMBIS Systems Inc., San Diego, Calif.). From prior application of standard lipid components the Rf of the PA is known. The radioactivity associated with the PA spot is expressed as a percentage of the total radioactivity of the assay sample loaded on the plate. This ratio provides an indication of the proportion of the scintillation counts which represent the PA product, and may be used to correct the counts to obtain the total PA radioactivity formed in the assay. […]

LPCAT = LPCAT assay, coconut P2 preparation; assay type: biochemical, Cocos nucifera; details: substrates 12:0-CoA+12:0-LPC
Description: Lysophosphatidylcholine (LPC) acyltransferase (LPCAT) is an enzyme analogous to LPAAT, involved in the biosynthesis of membrane lipids (phosphatidylcholine and derivatives thereof) instead of storage oil. The possibility that the activity measured in the LPAAT assay is not true LPAAT, but rather an inefficient action of LPCAT on the LPAAT substrates, can be tested by direct assay for LPCAT. For example, the LPAAT activity of the coconut P2 preparation with the substrate combination 12:0-CoA+12:0-LPA is readily measurable, whereas the LPCAT activity of the same preparation with the substrates 12:0-CoA+12:0-LPC is undetectable. […] The activities on long-chain substrates may represent either a single acyltransferase enzyme able to use LPA and LPC acceptor substrates, or discrete "long-chain" LPAAT and LPCAT enzymes which are present together.

bay LPAAT = assay: LPAAT activity assay, California bay P2 membrane preparation; assay type: biochemical, Umbellularia californica; details: P2 membrane preparation; acyl-CoA donor varied, acceptor 12:0-LPA
Protocol: To assay for LPAAT activity, the sample is incubated with lysophosphatidic acid (LPA) and acyl-coenzyme A (acyl-CoA) substrates in buffered solution. The acyl substituents of the two substrates are chosen to correspond with the specificity of the enzyme being measured. […] The acyl group of one substrate is radioactively labeled in order to detect the product formed. In the examples which follow the acyl substituent of the acyl-CoA substrate is radiolabeled with ^14 C in the carboxyl group. LPAAT activity results in transfer of this acyl group from the acyl-CoA "donor" substrate to the LPA "acceptor" substrate, converting the latter into the product, phosphatidic acid (PA). LPAAT activity is measured as the amount of radioactive product formed in a given assay time. The PA product is radioactive as a result of the transferred radiolabeled acyl group at the central carbon atom of the molecule, and the quantity of PA formed may be determined by measuring radioactivity of the PA fraction. For this measurement, the PA is first separated from the acyl-CoA substrate by solvent partitioning, or by thin-layer chromatography (TLC).

Rapeseed LPAAT = assay: LPAAT activity assay, rapeseed P2 membrane preparation; assay type: biochemical, Brassica napus; details: acyl-CoA donor varied, acceptor 12:0-LPA
Protocol: as §1, §2, §3
A more accurate estimation of the LPAAT activity may be obtained by separating the PA product from these contaminants by TLC. The remaining organic phase is applied to a silica TLC plate. […] After the plate has dried, the distribution of radioactivity is visualized and quantitated using an AMBIS radioanalytic imaging system (AMBIS Systems Inc., San Diego, Calif.). From prior application of standard lipid components the Rf of the PA is known. The radioactivity associated with the PA spot is expressed as a percentage of the total radioactivity of the assay sample loaded on the plate. This ratio provides an indication of the proportion of the scintillation counts which represent the PA product, and may be used to correct the counts to obtain the total PA radioactivity formed in the assay.
A P2 membrane homogenate from immature embryos of developing rapeseed (Brassica napus) seeds is prepared essentially as described above, except as noted below.

[3] = target: T2, LPAAT of transformant 5511-5 (Cocos nucifera, UniProt Q42670); assay: LPAAT acyl-CoA specificity, P2 preparation of LPAAT-transformed line 5511-5; assay type: biochemical, Rapeseed; details: acyl-CoA donor varied at 5 μM, acceptor 12:0-LPA; 30 minute reaction
T2 construct: crude P2 membranes, host LPAAT also present
T2 sequence (Q42670 1-308): T1 sequence (Q42670 1-308)
Protocol: (§4) Detailed acyl-CoA chain-length specificity analysis of control P2 preparations and LPAAT-transformed line 5511-5 were determined as described above, using the original 30 minute reaction time. The acyl-CoA substrates for this analysis are present in methanol, and thus the assay also had the following modifications. The first solution placed in the assay vial was the volume of each radiolabeled acyl-CoA required for 5 μM final assay concentration. […] After mixing to redissolve the acyl-CoA off the vial wall, the reaction is started by addition of 25 μl of a 5-fold diluted P2 preparation and continued as before. Acyl-CoA substrates used in this analysis were 8:0, 10:0, 12:0, 14:0, 16:0, 18:0, and 18:1. The acceptor substrate in these assays was 12:0-LPA.

control rapeseed LPAAT = assay: LPAAT acyl-CoA specificity, control P2 preparation; assay type: biochemical; details: acyl-CoA donor varied at 5 μM, acceptor 12:0-LPA; 30 minute reaction
Protocol: as §4

coconut LPAAT [4] = target: T1, coconut LPAAT; assay: Acyl-CoA specificity of coconut LPAAT expressed in E. coli (pCGN5505), membrane fractions; assay type: biochemical; parameters: the SalI/BamHI fragment of pCGN5504 containing the entire coconut LPAAT encoding region; made in house; host or cells: E. coli BL21(DE3), membrane fractions; details: acceptor 12:0-LPA
Protocol: The samples are centrifuged at 12,000 g for 15 minutes. The resulting supernatant fractions are centrifuged for two hours at 134,000 g, and the pelleted membranes suspended in 50 mM HEPES, 200 mM NaCl, 20% (w/v) glycerol, 5 mM β-mercaptoethanol, pH 7.5. Membrane fractions are assayed for acyl-CoA substrate specificities with 12:0-LPA and various acyl-CoA species as described in Example 1. Membrane preparations from cultures of E. coli and from immature coconut endosperm are combined with soybean phospholipids and diluted in 1M NaCl in Buffer A to simulate the pre-assay conditions of the solubilized enzyme.

Molecule: 12:0-ACP: 12:0 acyl-ACP tested as LPAAT donor substrate
hydrolysis by the P2 preparation (coconut LPAAT [1]): not hydrolyzed | utilization as LPAAT donor substrate instead of 12:0-CoA (coconut LPAAT [2]; coconut P2 preparation): will not utilize

Molecule: CCCCCCCCCCCC(=O)OCC(O)COP(=O)([O-])OCC[N+](C)(C)C (stereo not drawn) [12:0-LPC, lauroyl-lysophosphatidylcholine]
LPCAT activity (LPCAT): undetectable

Cpm PA Product, 5511-5 [3]: 2038 Cpm | utilization by E. coli expressed coconut LPAAT (coconut LPAAT [4]): less well utilized | LPAAT Activity from Coconut (coconut LPAAT [2]; P2 membrane preparation, acyl-CoA donor varied, acceptor 12:0-LPA): 13 pmol PA formed/30 min assay
Molecule: CCCCCCCCCCCCCCCCCC(=O)SCCNC(=O)CCNC(=O)[C@H](O)C(C)(C)COP(=O)(O)OP(=O)(O)OC[C@H]1O[C@@H](n2cnc3c(N)ncnc32)[C@H](O)[C@@H]1OP(=O)(O)O [18:0]
LPAAT Activity from Bay (bay LPAAT): 6 pmol PA formed/30 min assay | LPAAT Activity from Rapeseed (Rapeseed LPAAT): 21 pmol PA formed/30 min assay | Cpm PA Product, Control (control rapeseed LPAAT): 1514 Cpm
